Reference: ChEMBL document CHEMBL3351303, “Discovery of Imigliptin, a Novel Selective DPP-4 Inhibitor for the Treatment of Type 2 Diabetes” (ACS Med Chem Lett, 2014)
≈ marks a conversion by molar mass, not a printed value.

Assays:
[1] = target: Cytochrome P450 2C19 (Homo sapiens, UniProt P33261); experiment: Inhibition of CYP2C19 (unknown origin); type: ADME
[2] = system: Mus musculus; experiment: Inhibition of DPP4 activity in C57BL/6 mouse at 1 mg/kg, po administered as single dose 30 mins before orally glucose challenge and measured 20 mins post oral glucose challenge by luminescence assay; type: functional
[3] = target: Voltage-gated inwardly rectifying potassium channel KCNH2 (Homo sapiens, UniProt Q12809); experiment: Inhibition of human ERG
Chain of Voltage-gated inwardly rectifying potassium channel KCNH2 (Q12809 whole entry): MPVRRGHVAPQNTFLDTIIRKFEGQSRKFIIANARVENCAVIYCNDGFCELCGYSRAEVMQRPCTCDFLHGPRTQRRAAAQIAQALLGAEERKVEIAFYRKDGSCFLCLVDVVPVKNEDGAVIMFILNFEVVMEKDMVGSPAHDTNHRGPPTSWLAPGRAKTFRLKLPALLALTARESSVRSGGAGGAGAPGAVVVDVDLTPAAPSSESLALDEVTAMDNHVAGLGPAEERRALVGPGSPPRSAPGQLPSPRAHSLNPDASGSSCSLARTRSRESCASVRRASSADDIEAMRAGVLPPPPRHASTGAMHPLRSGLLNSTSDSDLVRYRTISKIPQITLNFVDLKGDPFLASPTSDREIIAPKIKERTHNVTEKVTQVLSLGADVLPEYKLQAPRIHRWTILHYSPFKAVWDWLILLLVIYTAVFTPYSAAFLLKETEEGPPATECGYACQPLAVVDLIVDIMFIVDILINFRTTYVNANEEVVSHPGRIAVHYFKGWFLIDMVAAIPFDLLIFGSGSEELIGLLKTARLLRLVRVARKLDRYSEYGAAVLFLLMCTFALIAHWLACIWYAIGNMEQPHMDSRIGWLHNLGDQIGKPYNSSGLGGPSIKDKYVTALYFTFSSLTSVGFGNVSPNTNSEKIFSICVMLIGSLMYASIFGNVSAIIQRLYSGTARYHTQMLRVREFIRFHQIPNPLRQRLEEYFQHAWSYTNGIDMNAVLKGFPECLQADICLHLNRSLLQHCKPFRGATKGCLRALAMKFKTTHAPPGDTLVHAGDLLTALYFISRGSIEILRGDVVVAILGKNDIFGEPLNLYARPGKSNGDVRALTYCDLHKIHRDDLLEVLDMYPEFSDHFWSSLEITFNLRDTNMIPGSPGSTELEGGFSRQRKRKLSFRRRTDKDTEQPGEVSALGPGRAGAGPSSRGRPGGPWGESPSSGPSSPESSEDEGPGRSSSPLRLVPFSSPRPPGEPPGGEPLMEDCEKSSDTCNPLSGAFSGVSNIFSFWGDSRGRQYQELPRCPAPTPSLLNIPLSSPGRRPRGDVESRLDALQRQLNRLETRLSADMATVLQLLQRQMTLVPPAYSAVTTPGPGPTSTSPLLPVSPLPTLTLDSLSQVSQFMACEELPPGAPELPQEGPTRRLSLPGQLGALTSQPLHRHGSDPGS

[4] = Oral bioavailability in rat at 10 mg/kg; type: ADME, organism-based; conditions: in vivo
[5] = system: Mus musculus; experiment: Antidiabetic activity in C57BL/6 mouse assessed as plasma glucose level at 0.3 mg/kg, po administered as single dose 30 mins before orally glucose challenge by oral glucose tolerance test (reference value: 15.6 mM); type: functional
[6] = Oral bioavailability in dog at 5 mg/kg; type: ADME, organism-based, Canis lupus familiaris; conditions: in vivo
[7] = system: Mus musculus; experiment: Increase in plasma GLP1 level in C57BL/6 mouse at 0.3 mg/kg, po administered as single dose 30 mins before orally glucose challenge and measured 20 mins post oral glucose challenge by ELISA method (reference value: 4 pM); type: functional
[8] = system: Canis familiaris; experiment: Cardiotoxicity in conscious dog assessed as induction of QT prolongation up to 20 mg/kg; type: toxicity, organism-based, Canis lupus familiaris; parameters: dose 20 mg/kg; conditions: in vivo
[9] = Solubility in pH 4.5 solution; type: physicochemical
[10] = system: Mus musculus; experiment: Inhibition of DPP4 activity in C57BL/6 mouse at 0.1 mg/kg, po administered as single dose 30 mins before orally glucose challenge and measured 20 mins post oral glucose challenge by luminescence assay; type: functional
[11] = Solubility in pH 6.8 solution; type: physicochemical
[12] = Cmax in dog at 5 mg/kg, po; type: ADME, organism-based, Canis lupus familiaris; parameters: dose 5 mg/kg, route oral; conditions: in vivo
[13] = Clearance in dog at 6.25 mg/kg, iv; type: ADME, organism-based, Canis lupus familiaris; parameters: dose 6.25 mg/kg, route intravenous; conditions: in vivo
[14] = Plasma concentration in C57BL/6 mouse at 0.1 mg/kg, po administered as single dose 30 mins before orally glucose challenge and measured 20 mins post oral glucose challenge; type: ADME, organism-based; parameters: dose 0.1 mg/kg, route oral
[15] = AUClast in rat at 10 mg/kg, po; type: ADME, organism-based; parameters: time 0 - last, dose 10 mg/kg, route oral; conditions: plasma
[16] = Cmax in monkey at 10 mg/kg, po; type: ADME, organism-based, Macaca mulatta; parameters: dose 10 mg/kg, route oral; conditions: rhesus monkey, in vivo
[17] = target: Cytochrome P450 2C9 (Homo sapiens, UniProt P11712); experiment: Inhibition of CYP2C9 (unknown origin); type: ADME
Chain of Cytochrome P450 2C9 (P11712 whole entry): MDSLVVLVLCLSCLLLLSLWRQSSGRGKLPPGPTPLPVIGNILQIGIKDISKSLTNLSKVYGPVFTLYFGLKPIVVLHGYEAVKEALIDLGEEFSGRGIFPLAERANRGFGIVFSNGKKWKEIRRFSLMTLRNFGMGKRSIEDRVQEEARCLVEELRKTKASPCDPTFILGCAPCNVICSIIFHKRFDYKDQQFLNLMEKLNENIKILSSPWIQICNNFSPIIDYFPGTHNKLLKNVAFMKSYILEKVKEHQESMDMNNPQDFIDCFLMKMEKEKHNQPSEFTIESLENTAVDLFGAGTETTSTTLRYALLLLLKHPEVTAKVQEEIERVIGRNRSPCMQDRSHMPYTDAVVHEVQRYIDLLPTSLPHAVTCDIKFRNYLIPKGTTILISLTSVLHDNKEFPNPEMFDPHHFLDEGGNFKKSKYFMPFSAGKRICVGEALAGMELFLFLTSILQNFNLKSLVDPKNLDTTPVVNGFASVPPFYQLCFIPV

[18] = Permeability from apical to basolateral side in human Caco2 cells; type: ADME, cell-based; conditions: Caco-2, read-out: permeability
[19] = system: Mus musculus; experiment: Antidiabetic activity in C57BL/6 mouse assessed as plasma glucose level at 1 mg/kg, po administered as single dose 30 mins before orally glucose challenge by oral glucose tolerance test (reference value: 15.6 mM); type: functional
[20] = system: Mus musculus; experiment: Inhibition of DPP4 activity in C57BL/6 mouse at 0.3 mg/kg, po administered as single dose 30 mins before orally glucose challenge and measured 20 mins post oral glucose challenge by luminescence assay; type: functional
[21] = Plasma concentration in C57BL/6 mouse at 1 mg/kg, po administered as single dose 30 mins before orally glucose challenge and measured 20 mins post oral glucose challenge; type: ADME, organism-based; parameters: dose 1 mg/kg, route oral
[22] = species: Mus musculus; experiment: animal or person; conditions: C57BL/6, Plasma, po, read-out: MED
[23] = Clearance in monkey at 5 mg/kg, iv; type: ADME, organism-based, Macaca mulatta; parameters: dose 5 mg/kg, route intravenous; conditions: rhesus monkey, in vivo
[24] = Half life in monkey at 5 mg/kg, iv; type: ADME, organism-based, Macaca mulatta; parameters: dose 5 mg/kg, route intravenous; conditions: rhesus monkey, in vivo
[25] = Volume of distribution at steady state in dog at 6.25 mg/kg, iv; type: ADME, organism-based, Canis lupus familiaris; parameters: dose 6.25 mg/kg, route intravenous; conditions: in vivo, read-out: Vdss
[26] = Volume of distribution at steady state in monkey at 5 mg/kg, iv; type: ADME, organism-based, Macaca mulatta; parameters: dose 5 mg/kg, route intravenous; conditions: rhesus monkey, in vivo, read-out: Vdss
[27] = Solubility in pH 1.2 solution; type: physicochemical
[28] = system: Mus musculus; experiment: Antidiabetic activity in C57BL/6 mouse assessed as reduction in plasma glucose AUC (0 to 120 mins) at 0.1 mg/kg, po administered as single dose 30 mins before orally glucose challenge by oral glucose tolerance test; type: functional; conditions: C57BL/6, Plasma
[29] = Plasma concentration in C57BL/6 mouse at 3 mg/kg, po administered as single dose 30 mins before orally glucose challenge and measured 20 mins post oral glucose challenge; type: ADME, organism-based; parameters: dose 3 mg/kg, route oral
[30] = system: Mus musculus; experiment: Increase in plasma GLP1 level in C57BL/6 mouse at 0.1 mg/kg, po administered as single dose 30 mins before orally glucose challenge and measured 20 mins post oral glucose challenge by ELISA method (reference value: 4 pM); type: functional
[31] = Oral bioavailability in monkey at 10 mg/kg; type: ADME, organism-based, Macaca mulatta; conditions: rhesus monkey, in vivo
[32] = Permeability from basolateral to apical side in human Caco2 cells; type: ADME, cell-based; conditions: Caco-2, read-out: permeability
[33] = Protein binding in rat; type: ADME, organism-based; conditions: in vivo, read-out: PB (converted)
[34] = system: Mus musculus; experiment: Toxicity in db/db mouse assessed as effect on body weight administered with food formulated compound for 28 days; type: organism-based; conditions: in vivo, po, 672 h
[35] = target: Cytochrome P450 3A4 (Homo sapiens, UniProt P08684); experiment: Inhibition of CYP3A4 (unknown origin); type: ADME
Chain of Cytochrome P450 3A4 (P08684 whole entry): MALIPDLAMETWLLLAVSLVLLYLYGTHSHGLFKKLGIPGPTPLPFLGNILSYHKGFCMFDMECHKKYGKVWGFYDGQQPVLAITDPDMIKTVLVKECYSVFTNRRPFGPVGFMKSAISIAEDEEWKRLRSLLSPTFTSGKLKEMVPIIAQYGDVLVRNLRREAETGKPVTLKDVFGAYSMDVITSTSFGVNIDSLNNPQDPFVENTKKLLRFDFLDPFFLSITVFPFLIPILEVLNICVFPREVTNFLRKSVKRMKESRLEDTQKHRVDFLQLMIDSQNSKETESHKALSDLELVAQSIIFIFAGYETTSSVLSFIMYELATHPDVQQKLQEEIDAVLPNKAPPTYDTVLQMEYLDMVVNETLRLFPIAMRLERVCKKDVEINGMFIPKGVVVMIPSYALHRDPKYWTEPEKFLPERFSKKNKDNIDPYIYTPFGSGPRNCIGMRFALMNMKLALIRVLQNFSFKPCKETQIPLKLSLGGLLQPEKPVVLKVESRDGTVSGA

[36] = AUClast in monkey at 10 mg/kg, po; type: ADME, organism-based, Macaca mulatta; parameters: dose 10 mg/kg, route oral, time 0 - last; conditions: rhesus monkey, plasma
[37] = system: Mus musculus; experiment: Increase in plasma GLP1 level in C57BL/6 mouse at 1 mg/kg, po administered as single dose 30 mins before orally glucose challenge and measured 20 mins post oral glucose challenge by ELISA method (reference value: 4 pM); type: functional
[38] = Protein binding in dog; type: ADME, organism-based, Canis lupus familiaris; conditions: in vivo, read-out: PB (converted)
[39] = species: Mus musculus; experiment: animal or person; conditions: C57BL/6, Plasma, po, read-out: INH
[40] = Half life in dog at 6.25 mg/kg, iv; type: ADME, organism-based, Canis lupus familiaris; parameters: dose 6.25 mg/kg, route intravenous; conditions: in vivo
[41] = Half life in rat at 10 mg/kg, iv; type: ADME, organism-based; parameters: dose 10 mg/kg, route intravenous; conditions: in vivo
[42] = Cmax in rat at 10 mg/kg, po; type: ADME, organism-based; parameters: dose 10 mg/kg, route oral; conditions: in vivo
[43] = system: Mus musculus; experiment: Inhibition of DPP4 activity in C57BL/6 mouse at 3 mg/kg, po administered as single dose 30 mins before orally glucose challenge and measured 20 mins post oral glucose challenge by luminescence assay; conditions: C57BL/6, po, read-out: INH
[44] = AUClast in dog at 5 mg/kg, po; type: ADME, organism-based, Canis lupus familiaris; parameters: time 0 - last, dose 5 mg/kg, route oral; conditions: plasma
[45] = system: Mus musculus; experiment: Antidiabetic activity in C57BL/6 mouse assessed as plasma glucose level at 0.1 mg/kg, po administered as single dose 30 mins before orally glucose challenge by oral glucose tolerance test (reference value: 15.6 mM); type: functional
[46] = Plasma concentration in C57BL/6 mouse at 0.3 mg/kg, po administered as single dose 30 mins before orally glucose challenge and measured 20 mins post oral glucose challenge; type: ADME, organism-based; parameters: dose 0.3 mg/kg, route oral
[47] = system: Salmonella typhimurium; experiment: Genotoxicity in Salmonella typhimurium at 5000 ug/plate by Ames test; type: toxicity, organism-based; conditions: salmonella enterica subsp. enterica serovar typhimurium
[48] = Half life in dog at 5 mg/kg, po; type: ADME, organism-based, Canis lupus familiaris; parameters: dose 5 mg/kg, route oral; conditions: in vivo
[49] = Protein binding in human; type: ADME, organism-based; conditions: in vivo, read-out: PB (converted)
[50] = target: Cytochrome P450 2D6 (Homo sapiens, UniProt P10635); experiment: Inhibition of CYP2D6 (unknown origin); type: ADME
Chain of Cytochrome P450 2D6 (P10635 whole entry): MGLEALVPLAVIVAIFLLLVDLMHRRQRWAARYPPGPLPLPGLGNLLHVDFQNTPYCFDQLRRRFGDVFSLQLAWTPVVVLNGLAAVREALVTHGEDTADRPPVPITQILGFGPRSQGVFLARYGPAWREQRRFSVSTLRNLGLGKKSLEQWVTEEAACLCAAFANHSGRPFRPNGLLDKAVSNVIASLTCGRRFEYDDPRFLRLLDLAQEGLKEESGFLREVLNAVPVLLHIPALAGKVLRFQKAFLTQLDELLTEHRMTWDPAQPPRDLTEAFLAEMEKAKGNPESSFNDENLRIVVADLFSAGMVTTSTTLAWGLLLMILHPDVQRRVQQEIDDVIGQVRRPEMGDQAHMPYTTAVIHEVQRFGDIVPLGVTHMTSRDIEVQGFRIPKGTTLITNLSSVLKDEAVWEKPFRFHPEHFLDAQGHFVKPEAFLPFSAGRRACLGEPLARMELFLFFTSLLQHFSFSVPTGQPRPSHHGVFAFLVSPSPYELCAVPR

[51] = Half life in rat at 10 mg/kg, po; type: ADME, organism-based; parameters: dose 10 mg/kg, route oral; conditions: in vivo
[52] = system: Mus musculus; experiment: Antidiabetic activity in C57BL/6 mouse assessed as reduction in plasma glucose AUC (0 to 120 mins) at 1 mg/kg, po administered as single dose 30 mins before orally glucose challenge by oral glucose tolerance test; type: functional; conditions: C57BL/6, Plasma
[53] = Toxicity in rat after 28 days; type: organism-based; conditions: in vivo
[54] = Half life in monkey at 10 mg/kg, po; type: ADME, organism-based, Macaca mulatta; parameters: dose 10 mg/kg, route oral; conditions: rhesus monkey, in vivo
[55] = system: Mus musculus; experiment: Antidiabetic activity in C57BL/6 mouse assessed as reduction in plasma glucose AUC (0 to 120 mins) at 0.3 mg/kg, po administered as single dose 30 mins before orally glucose challenge by oral glucose tolerance test; type: functional; conditions: C57BL/6, Plasma

Chain of Cytochrome P450 2C19 (P33261 whole entry): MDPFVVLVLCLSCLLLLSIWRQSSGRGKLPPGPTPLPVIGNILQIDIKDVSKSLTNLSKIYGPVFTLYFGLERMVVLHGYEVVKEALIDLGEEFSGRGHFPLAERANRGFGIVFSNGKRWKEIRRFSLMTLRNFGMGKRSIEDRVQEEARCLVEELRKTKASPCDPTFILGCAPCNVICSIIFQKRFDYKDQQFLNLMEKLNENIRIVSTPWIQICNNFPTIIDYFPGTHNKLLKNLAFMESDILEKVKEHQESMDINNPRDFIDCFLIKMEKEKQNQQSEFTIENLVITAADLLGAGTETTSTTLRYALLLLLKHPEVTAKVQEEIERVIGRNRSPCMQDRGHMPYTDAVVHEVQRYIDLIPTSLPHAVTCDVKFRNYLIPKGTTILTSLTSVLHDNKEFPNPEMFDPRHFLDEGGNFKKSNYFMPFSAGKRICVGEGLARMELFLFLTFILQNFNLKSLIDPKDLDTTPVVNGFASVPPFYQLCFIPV

Cc1cc(N2CCC[C@@H](N)C2)c2c(n1)n(C)c(=O)n2Cc1ccccc1C#N
INH [1]: > 30 µM | inhibition in vivo at 1 mg/kg [2]: 71.2% | INH [3]: > 25 µM | bioavailability [4]: 97% | Activity [5]: 12.4 mM | bioavailability [6]: 89% | Activity [7]: 5.7 pM | Activity [8]: Non-toxic | solubility [9]: 560 mg/mL (≈ 1490 mM) | inhibition in vivo at 0.1 mg/kg [10]: 23.8% | solubility [11]: 551 mg/mL (≈ 1460 mM) | Cmax [12]: 1360 ng/mL | clearance [13]: 35.3 mL/min/kg | concentration at 20 min [14]: 3.9 ng/mL | AUC(0-t) [15]: 3980 ng·h/mL | Cmax [16]: 3030 ng/mL | INH [17]: > 30 µM | Papp A→B [18]: 9 ×10⁻⁶ cm/s | Activity [19]: 11.4 mM | inhibition in vivo at 0.3 mg/kg [20]: 43.8% | concentration at 50 min [21]: 36.1 ng/mL | minimal effective dose [22]: 0.3 mg/kg | clearance [23]: 11.2 mL/min/kg | half-life [24]: 3.68 h | Vd [25]: 2.46 L/kg | Vd [26]: 2.44 L/kg | solubility [27]: 560 mg/mL (≈ 1490 mM) | inhibition in vivo at 0.1 mg/kg [28]: 3% | concentration at 20 min [29]: 129 ng/mL | Activity [30]: 5.7 pM | bioavailability [31]: 86% | Papp B→A [32]: 28 ×10⁻⁶ cm/s | fraction unbound [33]: 0.58 | Activity [34]: Non-toxic | INH [35]: > 30 µM | AUC(0-t) [36]: 12900 ng·h/mL | Activity [37]: 6.9 pM | fraction unbound [38]: 0.26 | inhibition in vivo at 3 mg/kg [39]: 65% | half-life [40]: 1.12 h | half-life [41]: 1.83 h | Cmax [42]: 1250 ng/mL | inhibition in vivo at 3 mg/kg [43]: 82.1% | AUC(0-t) [44]: 3630 ng·h/mL | Activity [45]: 14.1 mM | concentration at 20 min [46]: 10.3 ng/mL | Activity [47]: Non-toxic | half-life [48]: 1.3 h | fraction unbound [49]: 0.38 | INH [50]: > 30 µM | half-life [51]: 2.4 h | inhibition in vivo at 1 mg/kg [52]: 57% | NOAEL at 672 h [53]: 150 mg/kg | half-life [54]: 4.8 h | inhibition in vivo at 0.3 mg/kg [55]: 40%
